Measured values reported in the NIST ThermoML archive (doi:10.1021/je0504109).
± gives the expanded uncertainty stated by the source.

Experiments:
[1] = 298.15 K; 101 kPa; Liquid
[2] = xn = mol fraction of the nth substance listed; conditions: 298.15 K, 101 kPa, Liquid

Q: With `C1COCO1` [1,3-dioxolane] as the compound, how does the mass density [1] read?
A: 1057.1 ± 0.9 kg/m3

Q: What about the viscosity [1] of the same compound?
A: 0.531 ± 0.01 mPa·s

Q: Which mass density [1] does the source give for `C1COCCO1` [1,4-dioxane] here?
A: 1026.5 ± 0.8 kg/m3

Q: And the viscosity [1]?
A: 1.196 ± 0.02 mPa·s

Q: With `CCCCN` [1-butanamine] as the compound, how does the mass density [1] read?
A: 731.9 ± 0.6 kg/m3

Q: And the viscosity [1]?
A: 0.493 ± 0.009 mPa·s

Q: For `CCC(C)=O` [butanone], which mass density [1] is on record?
A: 798.1 ± 0.6 kg/m3

Q: What about the viscosity [1] of the same compound?
A: 0.373 ± 0.007 mPa·s

Q: For `CCC(C)=O` [butanone] + C1COCCO1, which mass density ([2]; x2 = 0) is on record?
A: 798.1 ± 0.6 kg/m3

Q: What about the viscosity ([2]; x2 = 0) of the same compound?
A: 0.373 ± 0.007 mPa·s

Q: And the mass density ([2]; x2 = 0.0833)?
A: 817 ± 0.6 kg/m3

Q: What about the viscosity ([2]; x2 = 0.0833) of the same compound?
A: 0.391 ± 0.008 mPa·s

Q: What about the mass density ([2]; x2 = 0.1698) of the same compound?
A: 836.5 ± 0.7 kg/m3

Q: What about the viscosity ([2]; x2 = 0.1698) of the same compound?
A: 0.411 ± 0.008 mPa·s

Q: And the mass density ([2]; x2 = 0.2597)?
A: 856.8 ± 0.7 kg/m3

Q: And the viscosity ([2]; x2 = 0.2597)?
A: 0.436 ± 0.008 mPa·s

Q: And the mass density ([2]; x2 = 0.353)?
A: 877.9 ± 0.7 kg/m3

Q: And the viscosity ([2]; x2 = 0.353)?
A: 0.464 ± 0.009 mPa·s

Q: And the mass density ([2]; x2 = 0.4501)?
A: 900.1 ± 0.7 kg/m3

Q: And the viscosity ([2]; x2 = 0.4501)?
A: 0.512 ± 0.01 mPa·s

Q: And the mass density ([2]; x2 = 0.5511)?
A: 923.3 ± 0.7 kg/m3

Q: What about the viscosity ([2]; x2 = 0.5511) of the same compound?
A: 0.576 ± 0.011 mPa·s

Q: What about the mass density ([2]; x2 = 0.6563) of the same compound?
A: 947.2 ± 0.8 kg/m3

Q: What about the viscosity ([2]; x2 = 0.6563) of the same compound?
A: 0.65 ± 0.012 mPa·s

Q: And the mass density ([2]; x2 = 0.766)?
A: 972.2 ± 0.8 kg/m3

Q: What about the viscosity ([2]; x2 = 0.766) of the same compound?
A: 0.751 ± 0.013 mPa·s

Q: What about the mass density ([2]; x2 = 0.8805) of the same compound?
A: 998.5 ± 0.8 kg/m3

Q: And the viscosity ([2]; x2 = 0.8805)?
A: 0.901 ± 0.015 mPa·s

Q: For `C1COCCO1` [1,4-dioxane] + CCCCOC(C)=O, which mass density ([2]; x1 = 1) is on record?
A: 1026.5 ± 0.8 kg/m3

Q: What about the viscosity ([2]; x1 = 1) of the same compound?
A: 1.196 ± 0.02 mPa·s

Q: Which mass density ([2]; x1 = 1) does the source give for `C1COCCO1` [1,4-dioxane] + CCC(C)=O here?
A: 1026.5 ± 0.8 kg/m3

Q: And the viscosity ([2]; x1 = 1)?
A: 1.196 ± 0.02 mPa·s

Q: With `CCCC(=O)O` [butanoic acid] as the compound, how does the mass density [1] read?
A: 952.8 ± 0.8 kg/m3

Q: And the viscosity [1]?
A: 1.396 ± 0.023 mPa·s

Q: Which results are given for `CCCCOC(C)=O` [butyl ethanoate]?
A: mass density [1]: 874.4 ± 0.7 kg/m3; viscosity [1]: 0.668 ± 0.012 mPa·s

Q: For `C1COCO1` [1,3-dioxolane] + CCCCN, which mass density ([2]; x1 = 1) is on record?
A: 1057.1 ± 0.9 kg/m3

Q: And the viscosity ([2]; x1 = 1)?
A: 0.531 ± 0.01 mPa·s

Q: For `CCCCOC(C)=O` [butyl ethanoate] + C1COCO1, which mass density ([2]; x2 = 0) is on record?
A: 874.4 ± 0.7 kg/m3

Q: What about the viscosity ([2]; x2 = 0) of the same compound?
A: 0.668 ± 0.012 mPa·s

Q: For `CCC(C)=O` [butanone] + C1COCO1, which mass density ([2]; x2 = 0) is on record?
A: 798.1 ± 0.6 kg/m3

Q: What about the viscosity ([2]; x2 = 0) of the same compound?
A: 0.373 ± 0.007 mPa·s
